In one assay the target is CDK1/cyclin B. As to the kind of experiment: CDK1/cyclin B kinase assay. Conditions: 15 μM ATP, 30° C., histone H1 substrate. Format: biochemical, starfish (Marthasterias glacialis). As to the method: Homogenization buffers: 60 mM β-glycerophosphate, 15 mM p-nitrophenyl phosphate, 25 mM Mops (pH 7.2), 15 mM EGTA, 15 mM MgCl2, 1 mM DTT, 1 mM sodium vanadate, 1 mM NaF, 1 mM phenyl phosphate, 10 μg leupeptin/ml, 10 μg aprotinin/ml, 10 μg soybean trypsin inhibitor/ml and 100 μM benzamidine.
(§1) Buffer C: 60 mM β-glycerophosphate, 15 mM p-nitrophenyl phosphate, 25 mM Mops (pH 7.2), 5 mM EGTA, 15 mM MgCl2, 1 mM DTT, 1 mM sodium vanadate, 1 mM phenyl phosphate, 10 μg leupeptin/ml, 10 μg aprotinin/ml and 100 μM benzamidine.
(§2) Controls were performed with appropriate dilutions of dimethyl sulfoxide.
(§3) ATP (3000 Ci/mmol; 10 mCi/ml) in a final volume of 30 μl. After incubation for 30 minutes at 30° C., aliquotes of 25 μl of the supernatant were spotted onto Whatman P81 phosphocellulose paper filters and, 20 seconds later, the filters were washed five times (for at least five minutes each time) in a solution of 10 ml of phosphoric acid/liter of water. The wet filters were subjected to counting in the presence of an ACS scintillation fluid from Amersham. CDK2/cyclin A (human, recombinant, expressed in insect cells) was assayed as described for CDK1/cyclin B. CDK5/p25 was reconstituted by mixing equal amounts of recombinant mammalian CDK5 and p25 expressed in E. coli as a GST (glutathione-S-transferase) fusion protein and purified by affinity chromatography on glutathione-agarose (p25 is a truncated version of p35, the 35 kDa CDK5 activator). […] DYRK1A (human, recombinant, expressed in E. coli as a GST fusion protein) was purified on glutathione-agarose, assayed as described for CDK1/cyclin B with myelin basic protein (1 mg/ml) as substrate.

A further assay concerns the target T1, CDK2/cyclin A (Homo sapiens, UniProt P24941).
T1 construct: host or cells: insect cells
The assay is described as follows: CDK2/cyclin A kinase assay. The assay is classed as biochemical. Conditions: 15 μM ATP, 30° C., histone H1 substrate. On the procedure: as §1, §2, §3

In the next assay the target is CDK5/p25 (Homo sapiens, UniProt Q00535). The assay is described as follows: CDK5/p25 kinase assay. Format: biochemical, mammalian. As to conditions: 15 μM ATP, 30° C., histone H1 substrate. As to the method:
as §1, §2, §3

For another assay, the target named is T2, CDK9/cyclin T (Homo sapiens, UniProt P50750).
T2 construct: host or cells: insect cells
The assay is described as follows: CDK9/cyclin T kinase assay. Format: biochemical. As to conditions: 15 μM ATP, 30° C., pRB fragment substrate.

Another assay addresses GSK-3α/β. As to the kind of experiment: GSK-3α/β kinase assay. The assay is classed as biochemical, pig. Conditions: 15 μM ATP, 30° C., buffer A, GS-1 substrate.
The target of another assay is CK1δ/ε. As to the kind of experiment: CK1δ/ε kinase assay. The assay is classed as biochemical, pig. As to conditions: 15 μM ATP, 30° C., CK1-specific peptide substrate. On the procedure: (§4) The blank values were subtracted and the activities calculated as μmoles of phosphate incorporated per 10 minutes of incubation. […] Controls were performed with appropriate dilutions of dimethyl sulfoxide.
as §3

A further assay has as its target DYRK1A (Homo sapiens, UniProt Q13627). As to the kind of experiment: DYRK1A kinase assay. Format: biochemical. As to conditions: 15 μM ATP, 30° C., myelin basic protein substrate. On the procedure:
as §4, §3

Assay [1] deals with SH-SY5Y human neuroblastoma cells. The assay is described as follows: SH-SY5Y cell viability (MTS reduction). Format: cell-based. As to conditions: Homo sapiens; SH-SY5Y cell line, cell viability by MTS. As to the method:
A Cell Titer 96® kit containing the MTS reagent was purchased from Promega (Madison, Wis., USA). The protease inhibitor cocktail came from Roche and the fetal calf serum (FCS) came from Invitrogen. The reagents not listed came from Sigma, unless otherwise indicated.
The SH-SY5Y human neuroblastoma cell line was grown in a DMEM medium with L-glutamine from Invitrogen (Cergy Pontoise, France), antibiotics and 10% by volume of FCS from Invitrogen. The general culture conditions were a 5% CO2 atmosphere and a temperature of 37° C. The culture plates and other disposable plastic tools were supplied by Corning (Corning, N.Y., USA). The treatments with the compounds of the invention were carried out on cultures in exponential growth over time, and indicated concentrations. The control experiments were carried out also using suitable dilutions of DMSO.
The cell viability was determined by measuring the reduction of 3-(4,5-dimethylthiazol-2-yl)-5-(3-carboxymethoxyphenyl)-2-(4-sulfophenyl)-2H-tetrazolium (MTS).
(In general: Tetrazolium dyes change colour on reduction, which living cells bring about.)

SMILES strings stand for the structures. Structures can show the parent of a compound that is named as a salt.

A word on the IC50: it is the concentration at which inhibition is half-maximal. Read a low IC50 as inhibition by little substance.

Sequence of CDK5/p25 (Q00535 whole entry, species assumed): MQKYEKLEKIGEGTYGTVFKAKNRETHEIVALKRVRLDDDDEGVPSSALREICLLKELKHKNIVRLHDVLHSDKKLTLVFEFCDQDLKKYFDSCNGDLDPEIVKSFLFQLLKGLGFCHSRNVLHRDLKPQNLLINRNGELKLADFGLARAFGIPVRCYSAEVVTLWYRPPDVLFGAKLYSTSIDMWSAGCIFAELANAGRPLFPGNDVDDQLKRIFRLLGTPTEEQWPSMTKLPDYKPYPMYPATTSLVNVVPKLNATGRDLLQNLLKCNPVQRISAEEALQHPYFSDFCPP
Sequence of CDK5/p25 (Q15078 99-307 partner limits assumed, species assumed): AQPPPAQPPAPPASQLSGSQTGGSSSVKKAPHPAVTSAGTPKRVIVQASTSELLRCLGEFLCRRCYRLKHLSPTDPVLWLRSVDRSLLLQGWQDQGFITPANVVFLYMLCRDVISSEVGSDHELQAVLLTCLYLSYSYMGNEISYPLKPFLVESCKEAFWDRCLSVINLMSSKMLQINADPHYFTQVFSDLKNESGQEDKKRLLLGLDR
T2 sequence (P50750 whole entry): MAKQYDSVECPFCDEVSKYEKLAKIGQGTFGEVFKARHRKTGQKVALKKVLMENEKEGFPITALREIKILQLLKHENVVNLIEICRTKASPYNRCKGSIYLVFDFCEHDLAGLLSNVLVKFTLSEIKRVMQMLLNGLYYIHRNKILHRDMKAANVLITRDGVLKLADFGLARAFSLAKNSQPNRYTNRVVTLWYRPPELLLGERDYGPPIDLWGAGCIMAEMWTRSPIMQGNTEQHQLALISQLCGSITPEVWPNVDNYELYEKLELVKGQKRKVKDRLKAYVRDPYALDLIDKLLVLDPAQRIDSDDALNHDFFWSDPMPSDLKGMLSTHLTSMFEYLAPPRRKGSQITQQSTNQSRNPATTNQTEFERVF
T2 sequence (O60563 whole entry partner): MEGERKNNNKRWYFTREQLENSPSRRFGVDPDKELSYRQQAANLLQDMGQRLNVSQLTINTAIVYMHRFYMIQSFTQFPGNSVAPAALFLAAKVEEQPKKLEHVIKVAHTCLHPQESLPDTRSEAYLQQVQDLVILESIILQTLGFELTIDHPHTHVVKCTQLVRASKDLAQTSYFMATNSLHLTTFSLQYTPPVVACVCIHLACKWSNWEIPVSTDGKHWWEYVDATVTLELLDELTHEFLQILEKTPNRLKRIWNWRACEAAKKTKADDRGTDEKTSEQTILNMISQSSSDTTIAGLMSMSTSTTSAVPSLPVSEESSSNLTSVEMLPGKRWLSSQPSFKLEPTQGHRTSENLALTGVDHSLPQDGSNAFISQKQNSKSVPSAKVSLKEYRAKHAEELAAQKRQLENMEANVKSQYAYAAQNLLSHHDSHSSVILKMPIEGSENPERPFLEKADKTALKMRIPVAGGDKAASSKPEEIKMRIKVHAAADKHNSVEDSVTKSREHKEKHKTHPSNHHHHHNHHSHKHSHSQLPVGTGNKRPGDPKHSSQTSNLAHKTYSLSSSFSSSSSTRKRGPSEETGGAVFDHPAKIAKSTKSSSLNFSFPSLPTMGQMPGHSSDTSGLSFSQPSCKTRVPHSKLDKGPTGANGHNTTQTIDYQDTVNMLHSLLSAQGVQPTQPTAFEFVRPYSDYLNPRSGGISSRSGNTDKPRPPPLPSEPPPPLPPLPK

For `CC(C)c1cnn2c(NCc3ccc(-c4ccccn4)cc3)nc(N[C@@H](CO)[C@H](C)O)nc12` [Compound 15, Fumarate salt of (2S,3S)-2-(1,3-dihydroxybut-2-ylamino)-8-isopropyl-4-[4-(pyridin-2-yl)benzylamino]pyrazolo[1,5-a]-1,3,5-triazine], the IC50 amounted to 42 nM against CDK1/cyclin B; 31 nM against CDK2/cyclin A; 45 nM against CDK5/p25; 60 nM against CDK9/cyclin T; 2200 nM on GSK-3α/β; 120 nM against CK1δ/ε. In addition, on DYRK1A, the IC50 worked out at 530 nM.
For the compound `CC(C)c1cnn2c(NCc3ccc(-c4ccccn4)cc3)nc(N3CCN(CCO)CC3)nc12` [Compound 30, 2-[4-[8-isopropyl-4-[[4-(pyridin-2-yl)phenyl]methylamino]pyrazolo[1,5-a]-1,3,5-triazin-2-yl]piperazin-1-yl]ethanol], the IC50 is 380 nM against CDK5/p25; 2100 nM against GSK-3α/β; 560 nM against CK1δ/ε; 1400 nM against DYRK1A; 1400 nM in assay [1].
In the case of `CC(C)c1cnn2c(NCc3ccc(-c4ccccn4)cc3)nc(N[C@H](CO)[C@@H](C)O)nc12` [Compound 13, Fumarate salt of (2R,3R)-2-(1,3-dihydroxybut-2-ylamino)-8-isopropyl-4-[4-(pyridin-2-yl)benzylamino]pyrazolo[1,5-a]-1,3,5-triazine], the IC50 on CDK1/cyclin B stood at 31 nM; against CDK2/cyclin A it was 20 nM; at CDK5/p25, 21 nM; at CDK9/cyclin T it was 49 nM; against GSK-3α/β it was 2300 nM; against CK1δ/ε it was 180 nM. On DYRK1A, this compound came in with an IC50 of 300 nM.
Turning to `CC(C)c1cnn2c(NCc3ccc(-c4ccccn4)cc3)nc(N[C@H](CO)C(C)C)nc12` [Compound 28, (S)-2-(1-hydroxy-3-methylbut-2-ylamino)-8-isopropyl-4-[4-(pyridin-2-yl)benzylamino]pyrazolo[1,5-a]-1,3,5-triazine], the IC50 against CDK5/p25 is 120 nM; against GSK-3α/β, 7000 nM; at CK1δ/ε, 410 nM; at DYRK1A it was 580 nM.
Turning to `CC(C)c1cnn2c(NCc3ccc(-c4ccccn4)cc3)nc(NC[C@H](O)CO)nc12` [Compound 9, Fumarate salt of (S)-2-(1,2-dihydroxypropan-3-ylamino)-8-isopropyl-4-[4-(pyridin-2-yl)benzylamino]pyrazolo[1,5-a]-1,3,5-triazine], the IC50 against CDK1/cyclin B was 19 nM; against CDK2/cyclin A, 12 nM; against CDK5/p25, 14 nM; on CDK9/cyclin T, 38 nM; against GSK-3α/β, 1800 nM; against CK1δ/ε, 61 nM. This compound had an IC50 on DYRK1A of 260 nM.
As for `CCc1cnn2c(NCc3ccc(-c4ccccn4)cc3)nc(N[C@H](CC)CO)nc12` [Compound 36, (R)-8-ethyl-2-(1-hydroxybut-2-ylamino)-4-[4-(pyridin-2-yl)benzylamino]pyrazolo[1,5-a]-1,3,5-triazine], the IC50 is 22 nM against CDK5/p25; 1600 nM at GSK-3α/β; 580 nM against CK1δ/ε; 1600 nM at DYRK1A; 26 nM in assay [1].
For the compound `CC(C)c1cnn2c(NCc3ccc(-c4ccccc4)nc3)nc(N[C@H](CO)[C@@H](C)O)nc12` [Compound 23], the IC50 on CDK5/p25 was less than 30 nM; at GSK-3α/β, 1200 nM; against CK1δ/ε it was 130 nM; against DYRK1A, 1300 nM.
Consider `CCc1cnn2c(NCc3ccc(-c4ccccn4)cc3)nc(N[C@@H](CC)CO)nc12` [Compound 35, (S)-8-ethyl-2-(1-hydroxybut-2-ylamino)-4-[4-(pyridin-2-yl)benzylamino]pyrazolo[1,5-a]-1,3,5-triazine], for which the IC50 against CDK5/p25 stood at 34 nM; against GSK-3α/β, 1400 nM; at CK1δ/ε it was 930 nM; at DYRK1A, 820 nM; in assay [1], 50 nM.
For the compound `CC(C)c1cnn2c(NCc3ccc(-c4ccccn4)cc3)nc(NC(CO)CO)nc12` [Compound 18, Fumarate salt of 2-(1,3-dihydroxyprop-2-ylamino)-8-isopropyl-4-[4-(pyridin-2-yl)benzylamino]pyrazolo[1,5-a]-1,3,5-triazine], the IC50 on CDK1/cyclin B was determined as 51 nM; against CDK2/cyclin A, 49 nM; against CDK5/p25 it was 64 nM; at CDK9/cyclin T it was 61 nM; on GSK-3α/β, 2800 nM; against CK1δ/ε it was 120 nM. Further, inhibition against DYRK1A was half-maximal at 610 nM (IC50).
As for `CC(C)c1cnn2c(NCc3ccc(-c4ccsc4)cc3)nc(N[C@H](CO)[C@@H](C)O)nc12` (stereo in doubt) [Compound 16, (2R,3R)-2-(1,3-dihydroxybut-2-ylamino)-8-isopropyl-4-[4-(thiophen-3-yl)benzylamino]pyrazolo[1,5-a]-1,3,5-triazine], the IC50 on CDK1/cyclin B is 59 nM; at CDK2/cyclin A it was 34 nM; against CDK5/p25 it was 50 nM; at CDK9/cyclin T it was 91 nM; against GSK-3α/β it was 4200 nM; at CK1δ/ε it was 190 nM. The same compound gave an IC50 against DYRK1A of 1800 nM.
For the compound `CC(C)c1cnn2c(NCc3ccc(-c4ccccn4)cc3)nc(N[C@H](CO)[C@@H](C)O)nc12` (stereo in doubt) [Compound 12, (2R,3R)-2-(1,3-dihydroxybut-2-ylamino)-8-isopropyl-4-[4-(pyridin-2-yl)benzylamino]pyrazolo[1,5-a]-1,3,5-triazine], the IC50 was found to be 29 nM against CDK1/cyclin B; 22 nM against CDK2/cyclin A; 29 nM against CDK5/p25; 60 nM against CDK9/cyclin T; 3000 nM against GSK-3α/β; 200 nM at CK1δ/ε. For the same compound, inhibition on DYRK1A was half-maximal at 470 nM (IC50).
Take `CC(C)c1cnn2c(NCc3ccc(-c4ccccn4)cc3)nc(N[C@@H](CO)[C@H](C)O)nc12` (stereo in doubt) [Compound 14, (2S,3S)-2-(1,3-dihydroxybut-2-ylamino)-8-isopropyl-4-[4-(pyridin-2-yl)benzylamino]pyrazolo[1,5-a]-1,3,5-triazine]: the IC50 at CDK1/cyclin B turned out to be 42 nM; at CDK2/cyclin A, 42 nM; against CDK5/p25 it was 44 nM; on CDK9/cyclin T, 53 nM; against GSK-3α/β it was 2500 nM; against CK1δ/ε, 120 nM. At DYRK1A, this compound registered a 50% inhibitory concentration (IC50) of 580 nM.
`CC(C)c1cnn2c(NCc3ccc(-c4ccccn4)cc3)nc(NC(CO)CO)nc12` [Compound 17, 2-(1,3-dihydroxyprop-2-ylamino)-8-isopropyl-4-[4-(pyridin-2-yl)benzylamino]pyrazolo[1,5-a]-1,3,5-triazine]: the IC50 against CDK1/cyclin B is 70 nM; against CDK2/cyclin A, 62 nM; on CDK5/p25, 53 nM; on CDK9/cyclin T, 68 nM; against GSK-3α/β, 4400 nM; against CK1δ/ε, 92 nM. The midpoint of inhibition against DYRK1A, the IC50, lay at 920 nM.
`CC(C)c1cnn2c(NCc3ccc(-c4ccccc4)nc3)nc(N[C@@H](CO)[C@H](C)O)nc12` [Compound 21]: the IC50 against CDK5/p25 was 43 nM; against GSK-3α/β, 1200 nM; against CK1δ/ε, 110 nM; on DYRK1A, 1200 nM.
For the compound `CCc1cnn2c(NCc3ccc(-c4ccccn4)cc3)nc(NC[C@@H](O)CO)nc12` [Compound 31, (R)-2-(1,2-dihydroxypropan-3-ylamino)-8-ethyl-4-[4-(pyridin-2-yl)benzylamino]pyrazolo[1,5-a]-1,3,5-triazine], the IC50 is 25 nM against CDK5/p25; 1000 nM against GSK-3α/β; 360 nM on CK1δ/ε; 710 nM against DYRK1A; less than 30 nM in assay [1].

The values above are taken from patent publication US8691982B2, “Pyrazolo[1,5-a]-1,3,5-triazine derivatives, preparation thereof, and therapeutic use thereof” (Centre National de la Recherche Scientifique, priority 2009, dated 2014).
